Reference: patent US20250339415A1, “DISULFIDE COMPOUNDS AS MEDICAMENTS” (CYTACOAT AB, priority 2021, published 2025)
Converted amounts (≈) assume the structure as drawn.

Columns and labels:
Type in all cases: cell-based
[1] = test system: E. coli; assay: Combination therapy: Gentamycin with PDEA, visible growth; conditions: No PDEA
Description: (§1) Different concentrations of Gentamycin in Mueller Hinton were prepared in 3 different concentrations of PDEA. E. coli and S. aureus were inoculated (10^5) and were incubated O/N.
(§2) Readouts were “Clear” and “Foggy”.

[2] = test system: S. aureus; assay: as above; conditions: No PDEA
Description: as §1, §2

[3] = test system: Candida albicans; assay: Minimum inhibitory concentration (MIC), visible growth, YPD broth
Description: (§3) • 1. Using a sterile inoculating loop, transfer bacteria/Candida albicans from frozen stock culture and streak them on a fresh LA plate. • 2. Incubate the plate at 37° C. overnight (o/n) (18-24 h).
(§4) • 1. Prepare bacterial culture by adding 20 ml Mueller Hinton broth (*) to a 250-ml Erlenmeyer flask with sidearm. • 2. Using a sterile inoculating loop, pick approximately 10 colonies from the o/n bacterial culture and transfer bacteria to the flask. • 3. Incubate the E-flask with bacteria on a rotating shaker at 37° C. until OD590=0.40. This OD should equal an approximate bacterial count of 1×10^8 cfu/ml (**) • This is measured using a colorimeter (or spectrophotometer). Set reference and press R (=reference) first, then measure the bacterial culture by pressing T (=test). • 4. At OD590 0.40, serially dilute the bacterial suspension 1:10 000 in Mueller Hinton broth to obtain a bacterial target concentration of 1×10^4 cfu/ml. Determine the initial inoculation by serially diluting 0.1 ml in 0.9 ml blanks of sterile PBS and plating 0.1 ml aliquots to LA plates, preferably. • 5. Different concentrations of the tested compound are prepared in 0.6-0.8 ml of the final dilution of bacterial suspension and placed in 2-ml test tubes. • 6. Incubate test tubes in an orbital shaker incubator at 37° C. for 24 h.
(§5) • 7. Analyze visible growth, i.e. “Foggy” or “Clear”. MIC is being defined as the interval between the highest “Foggy” and the lowest “Clear” concentration of the compound.
(*) When testing Candida albicans, Yeast extract Peptone Dextrose (YPD) broth is being used.
(**) For Candida albicans it is equal to 1×10^7
Different concentrations of PDEA were also prepared in Yeast extract Peptone Dextrose (YPD) broth. Candida albicans were inoculated to a concentration of 20 000 CFU/ml and incubated at 37° C. for 24 hours. Readouts were “Clear” and “Foggy”.
Different concentrations of the quaternary ammonium PDEA (Example 2) were also prepared in Yeast extract Peptone Dextrose (YPD) broth. Candida albicans were inoculated to a concentration of 20 000 CFU/ml and incubated at 37° C. for 24 hours. Readouts were “Clear” and “Foggy”.
Different concentrations of the Para position-PDEA” is (S)-4-pyridylthio cysteamine were also prepared in Yeast extract Peptone Dextrose (YPD) broth. Candida albicans were inoculated to a concentration of 20 000 CFU/ml and incubated at 37° C. for 24 hours. Readouts were “Clear” and “Foggy”.
Different concentrations of “Carboxylic acid PDEA” is 3-(2-Pyridyldithio)propanoic acid (CAS: 68617-64-1) were also prepared in Yeast extract Peptone Dextrose (YPD) broth. Candida albicans were inoculated to a concentration of 20 000 CFU/ml and incubated at 37° C. for 24 hours. Readouts were “Clear” and “Foggy”.

[4] = test system: Staphylococcus aureus B5381; assay: Minimum inhibitory concentration (MIC), visible growth
Description: as §3, §4, §5
(§6) Different concentrations of PDEA (Example 1) in Mueller Hinton medium were prepared. Bacteria were inoculated to a concentration of 20 000 CFU/ml and incubated at 37° C. for 24 hours. Minimum inhibitory concentrations (MICs) were determined by analyzing visible growth, i.e., readouts were “Clear” and “Foggy”.
(§7) Different concentrations of the quaternary ammonium PDEA (Example 2) in Mueller Hinton medium were prepared. Bacteria were inoculated to a concentration of 20 000 CFU/ml and incubated at 37° C. for 24 hours. Minimum inhibitory concentrations (MICs) were determined by analyzing visible growth, i.e., readouts were “Clear” and “Foggy”.
(§8) Different concentrations of this compound in Mueller Hinton medium were prepared. Bacteria were inoculated to a concentration of 20 000 CFU/ml and incubated at 37° C. for 24 hours. Minimum inhibitory concentrations (MICs) were determined by analyzing visible growth, i.e., readouts were “Clear” and “Foggy”.
(§9) Different concentrations of this compound were prepared in Mueller Hinton broth. Bacteria were inoculated to a concentration of 20 000 CFU/ml and incubated at 37° C. for 24 hours. Minimum inhibitory concentrations (MICs) were determined by analyzing visible growth, i.e., readouts were “Clear” and “Foggy”.

[5] = test system: Staphylococcus epidermidis Se19 (Clinical Isolate, Jan Ingemar Falk); assay: as above
Description: as §3, §4, §5, §6, §7, §8, §9

[6] = test system: Pseudomonas aeruginosa PA02; assay: as above
Description: as §3, §4, §5, §6, §7, §8, §9

[7] = test system: Enterococcus faecalis #28 (KI, Clinical Isolate); assay: as above
Description: as §3, §4, §5, §6, §7, §8, §9

[8] = test system: Escherichia coli CFT073; assay: as above
Description: as §3, §4, §5, §6, §7, §8, §9

[9] = test system: Enterococcus faecium #11 (KI, Clinical Isolate); assay: as above
Description: as §3, §4, §5, §6, §7, §8, §9

[10] = test system: Klebsiella pneumoniae AO15200; assay: as above
Description: as §3, §4, §5, §6, §7, §8, §9

With Gentamycin the “Visible growth readout (Clear/Foggy)” value ([1]; Gentamycin 0.0156 μg/ml) was “Foggy”, the “Visible growth readout (Clear/Foggy)” value ([1]; Gentamycin 0.03125 μg/ml) was “Foggy” and the “Visible growth readout (Clear/Foggy)” value ([1]; Gentamycin 0.0625 μg/ml) was “Foggy”. For the same compound, the “Visible growth readout (Clear/Foggy)” value ([1]; Gentamycin 0.125 μg/ml) was “Foggy”, the “Visible growth readout (Clear/Foggy)” value ([1]; Gentamycin 0.25 μg/ml) was “Foggy” and the “Visible growth readout (Clear/Foggy)” value ([1]; Gentamycin 0.5 μg/ml) was “Foggy”. For the same compound, the “Visible growth readout (Clear/Foggy)” value ([1]; Gentamycin 1 μg/ml) was “Clear”, the “Visible growth readout (Clear/Foggy)” value ([1]; Gentamycin 2 μg/ml) was “Clear” and the “Visible growth readout (Clear/Foggy)” value ([1]; Gentamycin 4 μg/ml) was “Clear”. The “Visible growth readout (Clear/Foggy)” value ([1]; Gentamycin 8 μg/ml) was “Clear”, the “Visible growth readout (Clear/Foggy)” value ([1]; Gentamycin 16 μg/ml) was “Clear” and the “Visible growth readout (Clear/Foggy)” value ([1]; Gentamycin 32 μg/ml) was “Clear”. For the same compound, the “Visible growth readout (Clear/Foggy)” value ([1]; Gentamycin 64 μg/ml) was “Clear”, the “Visible growth readout (Clear/Foggy)” value ([1]; Gentamycin 128 μg/ml) was “Clear” and the “Visible growth readout (Clear/Foggy)” value ([1]; Gentamycin 256 μg/ml) was “Clear”. For the same compound, the “Visible growth readout (Clear/Foggy)” value ([2]; Gentamycin 0.0156 μg/ml) was “Foggy”, the “Visible growth readout (Clear/Foggy)” value ([2]; Gentamycin 0.03125 μg/ml) was “Foggy” and the “Visible growth readout (Clear/Foggy)” value ([2]; Gentamycin 0.0625 μg/ml) was “Foggy”. The “Visible growth readout (Clear/Foggy)” value ([2]; Gentamycin 0.125 μg/ml) was “Foggy”, the “Visible growth readout (Clear/Foggy)” value ([2]; Gentamycin 0.25 μg/ml) was “Clear” and the “Visible growth readout (Clear/Foggy)” value ([2]; Gentamycin 0.5 μg/ml) was “Clear”. For the same compound, the “Visible growth readout (Clear/Foggy)” value ([2]; Gentamycin 1 μg/ml) was “Clear”, the “Visible growth readout (Clear/Foggy)” value ([2]; Gentamycin 2 μg/ml) was “Clear” and the “Visible growth readout (Clear/Foggy)” value ([2]; Gentamycin 4 μg/ml) was “Clear”. The “Visible growth readout (Clear/Foggy)” value ([2]; Gentamycin 8 μg/ml) was “Clear”, the “Visible growth readout (Clear/Foggy)” value ([2]; Gentamycin 16 μg/ml) was “Clear” and the “Visible growth readout (Clear/Foggy)” value ([2]; Gentamycin 32 μg/ml) was “Clear”. For the same compound, the “Visible growth readout (Clear/Foggy)” value ([2]; Gentamycin 64 μg/ml) was “Clear”, the “Visible growth readout (Clear/Foggy)” value ([2]; Gentamycin 128 μg/ml) was “Clear” and the “Visible growth readout (Clear/Foggy)” value ([2]; Gentamycin 256 μg/ml) was “Clear”.

`NCCSSc1ccncc1` [Example 3, (S)-4-pyridylthio cysteamine] was tested, and the visible growth readout ([3]; 0.01 mM) was “Foggy”, the visible growth readout ([3]; 0.05 mM) was “Foggy” and the visible growth readout ([3]; 0.1 mM) was “Foggy”. For the same compound, the visible growth readout ([3]; 0.2 mM) was “Foggy”, the visible growth readout ([3]; 0.4 mM) was “Foggy” and the visible growth readout ([3]; 0.8 mM) was “Foggy”. For the same compound, the visible growth readout ([3]; 1.6 mM) was “Foggy”, the visible growth readout ([3]; 3.2 mM) was “Clear” and the MIC ([3]; Candida albicans, YPD broth, 20 000 CFU/ml, 37° C., 24 hours, read-out: MIC) was 1600 to 3200 µM (≈ 298 to 596 µg/mL). The visible growth readout ([4]; 0.01 mM) was “Foggy”, the visible growth readout ([4]; 0.05 mM) was “Foggy” and the visible growth readout ([4]; 0.1 mM) was “Foggy”. For the same compound, the visible growth readout ([4]; 0.2 mM) was “Foggy”, the visible growth readout ([4]; 0.4 mM) was “Clear” and the visible growth readout ([4]; 0.8 mM) was “Clear”. For the same compound, the visible growth readout ([4]; 1.6 mM) was “Clear”, the visible growth readout ([4]; 3.2 mM) was “Clear” and the MIC ([4]; Staphylococcus aureus, B5381, Mueller Hinton, 20 000 CFU/ml, 37° C., 24 hours, read-out: MIC) was 200 to 400 µM (≈ 37.3 to 74.5 µg/mL). For the same compound, the visible growth readout ([5]; 0.01 mM) was “Foggy”, the visible growth readout ([5]; 0.05 mM) was “Foggy” and the visible growth readout ([5]; 0.1 mM) was “Foggy”. For the same compound, the visible growth readout ([5]; 0.2 mM) was “Clear”, the visible growth readout ([5]; 0.4 mM) was “Clear” and the visible growth readout ([5]; 0.8 mM) was “Clear”. For the same compound, the visible growth readout ([5]; 1.6 mM) was “Clear”, the visible growth readout ([5]; 3.2 mM) was “Clear” and the MIC ([5]; Staphylococcus epidermidis, Mueller Hinton, 20 000 CFU/ml, 37° C., 24 hours, read-out: MIC) was 100 to 200 µM (≈ 18.6 to 37.3 µg/mL). The visible growth readout ([6]; 0.01 mM) was “Foggy”, the visible growth readout ([6]; 0.05 mM) was “Foggy” and the visible growth readout ([6]; 0.1 mM) was “Foggy”. For the same compound, the visible growth readout ([6]; 0.2 mM) was “Foggy”, the visible growth readout ([6]; 0.4 mM) was “Foggy” and the visible growth readout ([6]; 0.8 mM) was “Clear”. The visible growth readout ([6]; 1.6 mM) was “Clear”, the visible growth readout ([6]; 3.2 mM) was “Clear” and the MIC ([6]; Pseudomonas aeruginosa, PA02, Mueller Hinton, 20 000 CFU/ml, 37° C., 24 hours, read-out: MIC) was 400 to 800 µM (≈ 74.5 to 149 µg/mL). For the same compound, the visible growth readout ([7]; 0.01 mM) was “Foggy”, the visible growth readout ([7]; 0.05 mM) was “Foggy” and the visible growth readout ([7]; 0.1 mM) was “Foggy”. For the same compound, the visible growth readout ([7]; 0.2 mM) was “Foggy”, the visible growth readout ([7]; 0.4 mM) was “Clear” and the visible growth readout ([7]; 0.8 mM) was “Clear”. For the same compound, the visible growth readout ([7]; 1.6 mM) was “Clear”, the visible growth readout ([7]; 3.2 mM) was “Clear” and the MIC ([7]; Enterococcus faecalis, Mueller Hinton, 20 000 CFU/ml, 37° C., 24 hours, read-out: MIC) was 200 to 400 µM (≈ 37.3 to 74.5 µg/mL). The visible growth readout ([8]; 0.01 mM) was “Foggy”, the visible growth readout ([8]; 0.05 mM) was “Foggy” and the visible growth readout ([8]; 0.1 mM) was “Foggy”. The visible growth readout ([8]; 0.2 mM) was “Foggy”, the visible growth readout ([8]; 0.4 mM) was “Clear” and the visible growth readout ([8]; 0.8 mM) was “Clear”. The visible growth readout ([8]; 1.6 mM) was “Clear”, the visible growth readout ([8]; 3.2 mM) was “Clear” and the MIC ([8]; Escherichia coli, CFT073, Mueller Hinton, 20 000 CFU/ml, 37° C., 24 hours, read-out: MIC) was 200 to 400 µM (≈ 37.3 to 74.5 µg/mL). The visible growth readout ([9]; 0.01 mM) was “Foggy”, the visible growth readout ([9]; 0.05 mM) was “Foggy” and the visible growth readout ([9]; 0.1 mM) was “Foggy”. The visible growth readout ([9]; 0.2 mM) was “Clear”, the visible growth readout ([9]; 0.4 mM) was “Clear” and the visible growth readout ([9]; 0.8 mM) was “Clear”. For the same compound, the visible growth readout ([9]; 1.6 mM) was “Clear”, the visible growth readout ([9]; 3.2 mM) was “Clear” and the MIC ([9]; Enterococcus faecium, Mueller Hinton, 20 000 CFU/ml, 37° C., 24 hours, read-out: MIC) was 100 to 200 µM (≈ 18.6 to 37.3 µg/mL). For the same compound, the visible growth readout ([10]; 0.01 mM) was “Foggy”, the visible growth readout ([10]; 0.05 mM) was “Foggy” and the visible growth readout ([10]; 0.1 mM) was “Foggy”. For the same compound, the visible growth readout ([10]; 0.2 mM) was “Foggy”, the visible growth readout ([10]; 0.4 mM) was “Clear” and the visible growth readout ([10]; 0.8 mM) was “Clear”. The visible growth readout ([10]; 1.6 mM) was “Clear”, the visible growth readout ([10]; 3.2 mM) was “Clear” and the MIC ([10]; Klebsiella pneumoniae, AO15200, Mueller Hinton, 20 000 CFU/ml, 37° C., 24 hours, read-out: MIC) was 200 to 400 µM (≈ 37.3 to 74.5 µg/mL).
